Entries after “also recorded” stand apart in the source; their conditions may differ.

Assay [1] deals with wild-type or ALS/FTD-associated mutant (P362L, A381T, E384K) TIA1-GFP in HEK cells. Nature of the assay: TIA1-GFP aggregates in arsenite-treated HEK cells. Type of assay: cell-based. To be noted: sodium arsenite 0.5 mM 30 minutes, then 10 μM peptide. The source says:
The inventors tested whether the G3BP1 190-208 peptide would prevent the aggregation of granules formed by TIA1 and TDP43 mutant proteins associated with ALS and FTD. […] Next, we treated HEK cells expressing wild-type and or ALS/FTD-associated mutants (P362L, A381T, or E384K)TIA1, with arsenite a potent inducer of SG aggregation, in addition to either G3BP1 190-208 peptide or control G3BP1 168-189 peptide.
FIG. 5: Cell permeable G3BP1 190-208 peptide decreases TIA1-GFP puncta formed due to expression of disease causing TIA1 mutants. (A) Representative images of HEK cells transfected with GFP-tagged wild-type or ALS/FTD-associated mutants (P362L, A381T, or E384K) TIA1. Arrows show TIA1-GFP puncta. (B) Quantification of the percentage of cells with TIA1-GFP puncta greater than 2 μm^2 area in transfected cells relative TIA1-WT-GFP expressing cells. Consistent with previous studies, ALS/FTD- associated TIA1 mutants show increased number of TIA1-GFP puncta as compared to WT-TIA1. (C) HEK cells expressing TIA1-GFP or ALS/FTD-associated mutants TIA1-P362L, TIA1-A381T, TIA1-E384K were treated with sodium arsenite (0.5 mM) for 30 minutes followed by treatment with either 10 μM 190-208 G3BP1 or 168-189 control peptide. The number of cells containing TIA1-GFP puncta were measured and results are reported relative to non-treated controls. Number of HEK cells with TIA1-GFP granules both for WT and ALS/FTD mutants decreased after treatment with 10 μM 190-208 G3BP1 as compared to the 168-189 control peptide treated cells. (N≥90 over 3 cultures; by two-way ANOVA with Tukey HSD post-hoc). Scale bar: 20 μm.

For assay [2], the system named is axons of E18 cortical neurons. Nature of the assay: Aβ oligomer-mediated axon degeneration in microfluidic cultures. The class given is cell-based. As to conditions: axons only exposed: Aβ oligomer 1 μM for 16 hours ± 190-208 G3BP1 peptide 1 μM. As for the experimental part: To test whether the cell permeable G3BP1 190-208 peptide protects against this early axonal degeneration, the current disclosure exposed only the axons of E18 cortical neuron cultures to Aβ peptide using microfluidic cultures (FIG. 16A). […] Thus, the cell permeable G3BP1 190-208 peptide protects axons from the neurotoxic effects of Aβ oligomers through axon intrinsic mechanisms.
E18 cortical neurons were plated into the cell-body compartment (blue); after 7 DIV axons from these neurons extend through the microchannels into the axon compartment (pink). […] Yellow line indicates the exit of the axons from the microchannels.

Turning to “YGNKKNNNQNNN-VVEPEPEPEPEPEPEPVSE [G3BP1 190-208 peptide]”, the “number of HEK cells with TIA1-GFP granules” value in assay [1] (WT and ALS/FTD mutants, relative to non-treated controls) is “decreased”. Besides, the “size of TIA1 aggregates” value in assay [1] (WT and mutant TIA1) was “decrease the size of the TIA1 aggregates”. Also, the axon degeneration entry in assay [2] is given as “near completely prevented this axon degeneration; also recorded: rescues amyloid beta oligomer-mediated axonal degeneration”.

(Values after US20230190887A1, “TARGETING G3BP AGGREGATION TO PREVENT NEURODEGENERATION” (priority 2019, published 2023).)
